Where “and” joins values, the source holds several entries; their conditions need not be identical. Equal values may be shown once.
Legend:
[1] = DPPH free radical scavenging assay; conditions: 30 min, room temperature, dark, 517 nm; mean ± SD, n = 3; read-out: DPPH^• Scavenge IC50
Source text: The 2,2-diphenyl-1-pycrylhydrazyl free radical (DPPH^•) scavenging method is widely used to evaluate the free radical scavenging ability of natural antioxidants. 2,2-Diphenyl-1-pycrylhydrazyl is a stable nitrogen centered free radical, which has a violet color that changes to yellow after reduction by the process of either hydrogen atom or single electron transfer mechanism. Compounds that are able to execute this reaction can be considered antioxidants and therefore radical scavengers. In the radical form, the DPPH molecule has an absorbance of 517 nm, which disappears after the acceptance of an electron or hydrogen radical from an antioxidant compound, to become a stable diamagnetic molecule. The DPPH^• scavenging activities of the tested compounds were estimated using the method of [35] with slight modification. To 1 mL methanolic solution of DPPH^• (0.08 mM), 0.1 mL of the tested compounds were added. The resulting mixture was shaken thoroughly and allowed to stand at room temperature in the dark for 30 min, after which the absorbance of the solution was measured at 517 nm. L(+)-Ascorbic acid was used as the positive control. The negative control contained DPPH^• and methanol. The ability to scavenge DPPH radical was calculated using the equation:(2) % DPPH radical scavenge = (1 − At/A0) × 100 where A0 is the absorbance of the control and At is the absorbance of the tested compound. The DPPH^• absorbance decreases with an increase in the DPPH radical scavenging activity.
(§1) All data on AChE inhibition/antioxidant activity are the average of triplicate analyses (n = 3) and the data were recorded as mean ± standard deviation. Regression analysis was performed to calculate the dose-response relation and IC50 values were obtained from the equations y = a ± bx.

[2] = ABTS radical cation scavenging assay; conditions: 7 min, room temperature, 734 nm; mean ± SD, n = 3; read-out: ABTS^•+ Scavenge IC50
Description: The 2,2′-azinobis(3-ethylbenzothiazoline-6-sulphonic acid) radical cation (ABTS^•+), which absorbs at 734 nm, is formed by oxidation of the commercially available neutral species. This oxidation can be done by potassium persulphate, manganese (IV) oxide, or electrochemical methods. In the presence of a hydrogen-donating antioxidant, the […] quenches the hydrogen atom, which is followed by decolorization. In this study, the ABTS^•+ was produced by mixing 7 mM ABTS stock solution with 2.45 mM potassium persulfate and allowing the mixture to stand in a dark at room temperature for 16 h before use. Different concentrations of the tested compounds (0.1 mL) were added to 1 mL ABTS^•+ solution. The reaction mixtures were mixed thoroughly, incubated at room temperature for 7 min, and the absorbance was recorded at 734 nm. The ability to scavenge the ABTS radical cation was calculated using the following equation:(3) % ABTS radical cation scavenge = (1 − At/A0) × 100 where A0 is the absorbance of the control and At is the absorbance of the tested compound. The ABTS^•+ solution without any sample was used as a control, prepared by using the same procedure. From the percentage of the scavenging activity at different tested compounds concentrations, IC50 values were calculated and compared with those of standard L(+)-ascorbic acid solution.
as §1

[3] = Ferric-reducing antioxidant power (FRAP) assay; conditions: pH 3.6, 6 min, 593 nm; mean ± SD, n = 3
Description: The FRAP assay is a typical electron transfer-based method that measures the reduction of (Fe^3+)-ligand complex to the intensely blue-colored ferrous (Fe^2+)-ligand complex by antioxidants. The FRAP assay is carried out under acidic pH conditions in order to maintain iron solubility and more importantly, drive electron transfer. This will increase the redox potential, causing a shift in the dominant reaction mechanism. The FRAP assay was done according to the method described by Benzie and Strain [40] with slightly modifications. The stock solutions included 300 mM acetate buffer (pH 3.6), 10 mM 2,4,6-tris(2-pyridyl)-s-triazine (TPTZ) solution in ethanol, and 20 mM FeCl3 solution in 20 mM HCl. […] An aliquot of 0.1 mL of the tested compound was allowed to react with 3.0 mL of the FRAP working solution and 0.3 mL of water. […] The results are expressed as L(+)-ascorbic acid equivalent (AAE).
(§2) Regression analysis was performed to calculate the dose-response relation and IC50 values were obtained from the equations y = a ± bx.

[4] = Fe(II)-chelating assay (inhibition of Fe^2+–ferrozine complex formation); conditions: 10 min, room temperature, 562 nm
Source text: Among the transition metals, Fe^2+ ions are well-known for their significant role as a prooxidants in the lipid oxidation process and the formation of hydroxyl radicals in Fenton-type reactions. However, effective chelating agents can reduce the damage resulting from these reactions. The most important spectrophotometric method for studying chelation activity is the inhibition of the Fe^2+–ferrozine complex formation, during which ferrozine reacts quantitatively with Fe^2+ ions in the […] of a chelating agent and complex formation is disrupted. Measurement of color reduction therefore allows estimation of the metal chelating activity of the coexisting chelator. The chelating abilities on Fe^2+ by the tested compounds were estimated by the method as described by Dinis. Briefly, 0.4 mL of the tested compound was added to 0.05 mL of FeCl2 (2 mM) solution. The reaction was initiated by the addition of ferrozine (0.2 mL, 5 mM). The total volume of the systems was adjusted to 4 mL with ethanol. Then, the mixture was shaken vigorously and left at room temperature for 10 min. […] The percentage of chelating effect was calculated by using the equation below:(4) % Chelating effect = (1 − At/A0) × 100 where A0 is the absorbance of the control and At is the absorbance of the tested compound.
as §2

[5] = biological target: acetylcholinesterase (AChE) from Electrophorus electricus (Electrophorus electricus, UniProt O42275); test: biochemical; conditions: AChE from E. electricus; 15 min incubation at 37 °C, pH 8; mean ± SD, n = 3; read-out: AChE Inhibition IC50
[6] = read-out: Chelation ability IC50 (Fe^2+ ions)

Chain of acetylcholinesterase (AChE) from Electrophorus electricus (O42275 24-633): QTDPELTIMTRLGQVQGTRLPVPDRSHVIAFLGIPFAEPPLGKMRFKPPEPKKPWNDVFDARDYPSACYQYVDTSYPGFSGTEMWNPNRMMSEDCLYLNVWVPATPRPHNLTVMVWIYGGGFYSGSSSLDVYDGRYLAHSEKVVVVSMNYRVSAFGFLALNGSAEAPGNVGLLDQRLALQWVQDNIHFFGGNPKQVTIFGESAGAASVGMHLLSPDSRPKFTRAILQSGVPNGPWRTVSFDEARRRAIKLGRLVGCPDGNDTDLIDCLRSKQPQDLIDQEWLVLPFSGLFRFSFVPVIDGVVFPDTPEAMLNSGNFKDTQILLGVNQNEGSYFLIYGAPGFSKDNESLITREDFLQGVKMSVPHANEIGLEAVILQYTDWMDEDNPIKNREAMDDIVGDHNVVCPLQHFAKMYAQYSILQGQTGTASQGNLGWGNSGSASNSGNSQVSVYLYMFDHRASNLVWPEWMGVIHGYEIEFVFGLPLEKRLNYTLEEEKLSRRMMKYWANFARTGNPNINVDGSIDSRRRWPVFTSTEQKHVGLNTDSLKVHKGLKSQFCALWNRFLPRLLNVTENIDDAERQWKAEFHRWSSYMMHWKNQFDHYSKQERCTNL

Compound	IC50 [1] [µM]	IC50 [2] [µM]	FRAP AAE (L(+)-ascorbic acid equivalent) [3]	IC50 ([4]; read-out: Chelation of ferrous ions IC50) [µM]	IC50 [5] [µM]	IC50 [4, 6] [µM]
O=C1O[C@H]([C@@H](O)CO)C(O)=C1O [L(+)-Ascorbic acid]	1.14 ± 0.03	0.11	–	–	–	–
O=C(/C=C/c1ccc(O)c(O)c1)NCCc1ccc(O)c(O)c1 [N-trans-Caffeoyldopamine]	5.95 ± 0.12	0.24	822.45 μmol/mmol and 822.45 ± 13.53 μmol/mmol	3480	19.1 ± 0.83	–
COc1cc(/C=C/C(=O)NCCc2ccc(O)c(O)c2)ccc1O [N-trans-Feruloyldopamine]	12.29 ± 0.04	0.74	661.53 ± 13.51 μmol/mmol	–	8.52 ± 0.27	3170
O=C([O-])CN(CCN(CC(=O)[O-])CC(=O)O)CC(=O)O.[Na+].[Na+] [Na2EDTA, disodium ethylenediaminetetraacetate]	–	–	–	–	–	10
O=C(O)/C=C/c1ccc(O)c(O)c1 [trans-Caffeic acid]	18.9 ± 0.22	1.19 ± 0.02	526.05 ± 12.87 μmol/mmol	–	–	12900
COc1cc(/C=C/C(=O)O)ccc1O [trans-Ferulic acid]	19.93 ± 0.18	1.62 ± 0.01	–	–	20.6 ± 0.65	5060

Source: paper PMC6027674, “Acetylcholinesterase Inhibition and Antioxidant Activity of N-trans-Caffeoyldopamine and N-trans-Feruloyldopamine” (Scientia Pharmaceutica, 2018)
